{"source": "patent US20050272738A1", "about": "“Combined treatment with oxaliplatin and an epidermal growth factor receptor kinase inhibitor” (priority 2004, published 2005)", "key": {"[1]": {"tested_on": "LoVo human colon xenograft", "assay": "Anti-tumor efficacy in LoVo human colorectal xenograft in nude mice (experiments 525 and 540)", "format": "in vivo, female athymic nu/nu mice", "from_the_text": "The goal of this study is to assess the anti-tumor efficacy of the small molecule epidermal growth factor receptor inhibitor (EGFRi) Tarceva™ in combination with oxalipaltin on LoVo colorectal human xenograft, grown in female athymic nu/nu mice. Oxaliplatin is an agent that is currently used clinically in the treatment of colorectal cancer alone and in combination with other chemotherapeutic agents and/or radiation, depending on the stage of disease. In this study, the drugs were combined at their respective maximum tolerated dose (MTD) and also combined together at sub-optimal doses. All doses included in the combination groups were also included in the study as monotherapy arms. The attempt was to achieve maximum efficacy/regression without increased toxicity.\n(§1) The health of all animals was determined daily by gross observation of experimental animals and by the analyses of blood samples of sentinel animals that were housed on the shared shelf racks. All animals were allowed to acclimate and recover from any shipping related stress for one week prior to experimental manipulation. […] Cages, bedding and water bottles were autoclaved before use and were changed weekly. […] All in vivo experiments were performed in accordance with protocols approved by the Roche Animal Care and Use Committee (RACUC). The Roche animal care facility is fully accredited by the American Association for the Accreditation of Lab Animal Care (AAALAC).\nLoVo cells were grown in F-12K+20% FBS (not heat inactivated) and harvested. 5×10^6 cells/0.2 ml/mouse in PBS (Phosphate Buffered Saline) were implanted subcutaneously in the right flank on Aug.\nFormulated compound was made up in one batch for the entire 3 week study.\nOxaliplatin was provided in clinical form. […] An aliquot of the stock vial solutions was taken for each dose group representing the drug needed for that group for the entire study duration and diluted out further with sterile saline, to provide a solution that renders a 0.2 ml dosing volume for each individual animal.\nFor study 540, animals were randomized according to tumor volume on day 17 post tumor implantation so that all groups had similar starting mean tumor volumes of 100-150 mm^3.\nFor efficacy study 540, treatment began on Sep. […] Tarceva™ was administered using a 1 cc syringe and 18-gauge gavage needles (0.2 ml/animal). Oxaliplatin was administered ip using a 1-cc syringe and 26-gauge needle (0.2 ml/animal). […] Treatment ended on Sep. […] No end of study drug exposure analysis was performed on this study.\n(§2) Tumor measurements and mouse weights were taken two-three times per week for LoVo. All animals were individually followed throughout the experiment.\nEfficacy data was graphically represented as the mean tumor volume+standard error of the mean (SEM).\nTumor volume (in cubic millimeters) was calculated using the ellipsoid formula: (D×(d2))/2 • where ‘D’ represents the large diameter of the tumor, and ‘d’ represents the small diameter.\nIn some cases, tumor regression and/or percent change in tumor volume was calculated using the formula: ((T−T0)/T0)×100 • where ‘T’ represents mean tumor volume of the treated group at a particular day and ‘T0’ represents mean tumor volume of the same treated group at initiation of treatment.\nStatistical analysis was determined by the rank sum test and One Way Anova and a post-hoc Bonferroni t-test (SigmaStat, version 2.0, Jandel Scientific, San Francisco, Calif.)."}, "[2]": {"assay": "Maximum tolerated dose / tolerability of Tarceva in nude mice (MTD study and previous efficacy studies)", "format": "in vivo, naïve female nude mice", "experimental": "Preliminary studies were performed in naïve female nude mice to determine the maximum tolerated dose (MTD) of Tarceva™. The MTD was defined as a dose that renders <20% body weight loss and no death in a 14 day study. […] Based on literature, a dosage for oxaliplatin of 10 mg/kg, once a week intraperitoneal was adopted in the study (Cividalli A, et al. (2002) Int. J. Radiat. Oncol. Biol. Phys. 52(4):1092-1098)."}, "[3]": {"assay": "Toxicity in LoVo efficacy study 540 (body weight, deaths, clinical signs)", "format": "in vivo, female nude mice", "details": "Tarceva 100 mg/kg (Group 2)", "experimental": "as §1\nFor efficacy study 540, treatment began on Sep. […] Tarceva™ was administered using a 1 cc syringe and 18-gauge gavage needles (0.2 ml/animal). Oxaliplatin was administered ip using a 1-cc syringe and 26-gauge needle (0.2 ml/animal). All groups were treated q7d for 3 weeks (total 3 injections). Treatment ended on Sep. […] No end of study drug exposure analysis was performed on this study.\nas §2"}, "HCT116 tumor model": {"tested_on": "HCT116 tumor model", "details": "HCT116 model (data not shown)"}, "colorectal cancer": {"tested_on": "colorectal cancer", "details": "cited from earlier work"}, "[4]": {"details": "Tarceva 100 mg/kg qd, LoVo, study 540"}, "[5]": {"details": "oxaliplatin 5 mg/kg q7d ip, LoVo, study 540"}, "[6]": {"details": "oxaliplatin 10 mg/kg q7d ip, LoVo, study 540"}}, "note": "Several values for one entry are separate records, joined by “and”; a condition that tells them apart may be missing. Identical values can stand only once. Like-named read-outs stand apart in the source and are kept apart here.", "data": [{"smiles": "C#Cc1cccc(Nc2ncnc3cc(OCCOC)c(OCCOC)cc23)c1", "note": "[Tarceva™, [6,7-bis(2-methoxyethoxy)-4-quinazolin-4-yl]-(3-ethynylphenyl) amine]", "values": [{"measurement": "tumor growth inhibition", "setting": "[1]; Tarceva 25 mg/kg qd, LoVo, across experiments", "result": "53-79%"}, {"measurement": "% T/C", "setting": "[1]; Tarceva 25 mg/kg qd, LoVo, study 540", "result": 47, "unit": "%"}, {"measurement": "tumor growth inhibition", "setting": "[1]; Tarceva 25 mg/kg qd, LoVo, study 540, day 39 post tumor implant", "result": 53, "unit": "%"}, {"measurement": "% T/C", "setting": "[1]; [4]", "result": 2, "unit": "%"}, {"measurement": "number of partial regressions", "setting": "[1]; [4]", "result": "four"}, {"measurement": "partial regressions (percent, in brackets)", "setting": "[1]; [4]", "result": "16% and 7%"}, {"measurement": "tumor growth inhibition (TGI)", "setting": "[1]; Tarceva 100 mg/kg qd, LoVo, study 540, day 39 post tumor implant", "result": 98, "unit": "%"}, {"measurement": "tumors partially regressed", "setting": "[1]; Tarceva 100 mg/kg, LoVo, experiments 525 and 540", "result": "40-60%"}, {"measurement": "tumor growth inhibition (TGI)", "setting": "[1]; erlotinib 25 mg/kg monotherapy, LoVo (summary value)", "result": 79, "unit": "%"}, {"measurement": "mice showing partial regressions (PR)", "setting": "[1]; erlotinib 100 mg/kg monotherapy, LoVo", "result": "6/10"}, {"measurement": "tumor growth inhibition (TGI)", "setting": "[1]; erlotinib 100 mg/kg monotherapy, LoVo, experiment 525", "result": "> 100", "unit": "%"}, {"measurement": "maximum tolerated dose (MTD)", "setting": "[2]; CMC/Tween formulation, 14 day study, MTD = <20% body weight loss and no death", "result": 100, "unit": "mg/kg qd"}, {"measurement": "toxicity at 200 mg/kg qd", "setting": "[2]; CMC/Tween formulation, MTD study", "result": "showing toxicity"}, {"measurement": "tolerability at 150 mg/kg once a day", "setting": "[2]; CMC/Tween, 3 weeks, previous efficacy studies", "result": "tolerated well"}, {"measurement": "clinical signs", "setting": "[3]", "result": "classic reddening of the skin"}]}, {"smiles": "O=C(O)C(=O)O.[NH-][C@@H]1CCCC[C@H]1[NH-].[Pt+2]", "note": "[Oxaliplatin]", "values": [{"measurement": "% T/C", "setting": "[1]; [5]", "result": 67, "unit": "%"}, {"measurement": "tumor growth inhibition (TGI)", "setting": "[1]; [5]", "result": 33, "unit": "%"}, {"measurement": "% T/C", "setting": "[1]; [6]", "result": 61, "unit": "%"}, {"measurement": "tumor growth inhibition (TGI)", "setting": "[1]; [6]", "result": 39, "unit": "%"}, {"measurement": "tumor growth inhibition (TGI)", "setting": "HCT116 tumor model; oxaliplatin 5 mg/kg", "result": 21, "unit": "%"}, {"measurement": "tumor growth inhibition (TGI)", "setting": "HCT116 tumor model; oxaliplatin 10 mg/kg", "result": 26, "unit": "%"}, {"measurement": "response rates", "setting": "colorectal cancer; combined with 5-FU and leucovorin, first-line treatment for colorectal cancer", "result": "25-40%"}]}, {"smiles": "O=c1[nH]cc(F)c(=O)[nH]1", "note": "[5-fluorouracil]", "values": [{"measurement": "response rates", "setting": "colorectal cancer; single-agent treatment, advanced colorectal cancer", "result": "about 10%"}]}]}
